Results: US6458872B1, “Benzotriazole UV absorbers having enhanced durability” (Ciba Specialty Chemicals Corporation, priority 1997, dated 2002)
“Also recorded” adds a separate entry of the source. Each block holds one compound with its values, some of them ahead of it.

Legend:
[1] = Durability in polycarbonate film, 2000 hours (Example 81); assay type: physicochemical; conditions: for % Loss / Absorbance (max) Loss units: 2000 hrs; for % Loss / Absorbance (max) Loss units / Absorbance (max) 2000 hrs: BB 2.19 wt %, J 1.81 wt %; for Absorbance (max) 0 hrs: BB 2.19 wt % (352 nm), J 1.81 wt % (344 nm)
Method: The durability of representative benzotriazoles in thermoplastic substrates is determined by incorporating various test compounds into solvent cast films of poly(vinyl chloride), polycarbonate and polystyrene resins. The free standing films are mounted into cardboard holders, secured in metal frames and exposed in an Atlas […] […] Loss of UV absorber is determined by monitoring the loss of diagnostic UV absorption as described earlier. Performance is measured by a change in color or the physical integrity of the film. Polycarbonate flake (LEXAN® 145, General Electric) is dissolved in methylene chloride at room temperature along with between 1 and 3% by weight of test benzotriazole, based on the polycarbonate. Films are cast using a calibrated drawdown bar to prepare 1 mil thick film after drying. […] Weather-meter.

[2] = UV absorption data (Example 74); assay type: physicochemical; parameters: ε @ λ max: unit not given beside the values
[3] = UV absorption data (Example 74); assay type: physicochemical; conditions: for Absorbance @ 375 nm: 20 mg/l concentrations, not the molar extinction values
Method: In the following examples the absorbance at 375 nm is reported for 20 mg/l concentrations. This is not the molar extinction values.

[4] = Yellowness color of solutions in butyl acetate, Macbeth Color-Eye (Example 75); assay type: physicochemical; conditions: 30 mg/100 mL in butyl acetate; for DE: corresponding Yellowness Index value; for b: yellowness, Macbeth Color-Eye
Method: The following examples show the difference in color between some of the instant compounds as measured by a Macbeth Color-Eye instrument at a concentration of 30 mg/100 mL in butyl acetate. […] In the table, the compounds are listed by increasing b value. The instrument measures yellowness as b and DE is the corresponding Yellowness Index value.

[5] = Loss of UV absorber from high solids thermoset acrylic clear coat, Xenon Arc Weather-Ometer (Example 77); assay type: physicochemical; conditions: after 1211 hours Xenon arc exposure; clear coat with 1% hindered amine; UV absorber at 5 mmol % by weight
Method: To ascertain the effect on thermal durability and loss rate from a high solids thermoset acrylic coating of various 2H-benzotriazole UV absorbers substituted by a variety of electron withdrawing and electron donating groups, the following tests are carried out.
A high solids thermoset acrylic clear coat is prepared by mixing an experimental acrylic polyol resin and hexamethoxymethylmelamine (Resimene® 747, Monsanto) at a solids ratio of 60/40. The dodecylbenzene sulfonic acid catalyst (Nacure® 5225; King Industries) is added at 0.70% by weight. A flow aid Modaflow® (Monsanto) is added at 0.25% by weight to form a model acrylic melamine resin system.
The model clear coat is reduced with xylene to a viscosity of 26-27 second using a Zahn #2 cup and applied via a conventional air spray at 50 psi (3.5 Kg/cm^2) over a 1″×3″ (2.54 cm×7.62 cm) quartz slide. Cure is achieved by baking the slide for 30 minutes at 260° F. (127° C.). The clear coat is stabilized with 1% by weight of a hindered amine light stabilizer, bis-(1-octyloxy-2,2,6,6-tetramethylpiperidin-4-yl)sebacate, (TINUVIN® 123, Ciba-Geigy). The various test benzotriazole UV absorbers are incorporated at the 5 mmol % by weight in the clear coat. The film thickness on the quartz slides range from 1.15 to 1.41 mils (0.029 to 0.036 mm).
The films on the quartz slides are weathered according to the following conditions in Xenon Arc Weather-Ometer with a controlled irradiance at 6500 W, using inner quartz and outer borosilicate S-type filter. The irradiation cycle is as follows: 40 minutes of straight irradiation with no water spray, followed by 20 minutes of light plus front spray, followed by 60 minutes of light irradiation and finally by 60 minutes dart plus rear spray (condensation). The setting is at 0.55 W/M^2 at 340 nm, 1.98 kJ/hour. In the light cycle the black panel temperature is controlled at 70±2° C. The relative humidity in the light cycle is in the range of 50-55% and in the dark cycle 100%. The absorbance of the long wavelength UV band as a function of Xenon arc weathering hours are recorded in the table below.
To follow the loss of UV absorbers from the clear coats, UV spectra are measured initially and after weathering at regular time intervals. The UV spectrophotometer measures absorbance linearly up to 5.5 absorbance units using a reference beam attenuation technique.
This is tested by following the ratio of absorbance of the band at about 300 nm and the band at about 340 nm.
The data in the table below are based on formula A after 1211 hours of exposure of the clear coats containing the test benzotriazole UV absorbers.

[6] = Loss of UV absorber from high solids thermoset acrylic melamine clear coat, Xenon-Arc X180 cycle (Example 78); assay type: physicochemical
Source text: Following the general procedure of Example 77, a number of additional benzotriazole test compounds are incorporated into a high solids thermoset acrylic melamine resin at such concentrations between 1.93 and 3% by weight to give equal molar concentrations of test benzotriazole in equal film thickness, and sufficient to give a starting absorbance of approximately 2.0 absorbance units.
The test discs are exposed in a Xenon-Arc Weather-Ometer at X180 cycle (0.45 Watts/M^2). The initial UV absorbance is measured followed by measurements at roughly 250 hour intervals for the first 2000 hours and every 500 hours thereafter. Each clear coat also contains 1% by weight of a hindered amine light stabilizer, bis-(1-octyloxy-2,2,6,6-tetramethylpiperidin-4-yl) sebacate, as well.

[7] = Loss of UV absorber from high solids thermoset acrylic melamine resin, 1002 hours (Example 79); assay type: physicochemical; conditions: 1002 hours exposure; starting absorbance approximately 2.0
Method: Following the general procedure of Example 77, representative benzotriazole test compounds are incorporated into a high solids thermoset acrylic melamine resin at concentrations between 1.93 and 3% by weight to give equal molar concentrations of the test benzotriazole in equal film thickness and sufficient to give a starting absorbance of approximately 2.0 absorbance units. The test samples are exposed as described in Example 77 for 1002 hours.

[8] = after 1253 hours of exposure, starting absorbance approximately 2.0, 1% hindered amine

SMILES: CC(C)(C)CC(C)(C)c1ccc(O)c(-n2nc3ccc(C(F)(F)F)cc3n2)c1 [BB, 5-trifluoromethyl-2-(2-hydroxy-5-tert-octylphenyl)-2H-benzotriazole]
% Loss [1]: 0.6% | Absorbance (max) Loss units [1]: 0.016 | Absorbance (max) 0 hrs [1]: 2.654 | Absorbance (max) 2000 hrs [1]: 2.638 | ε @ λ max [2]: 14,000 | λ max nm [2]: 348 nm | Absorbance @ 375 nm [3]: 0.33 | DE [4]: 0.27 | b [4]: 0.20

ε @ λ max [2]: 20,700 | λ max nm [2]: 328 nm | melting point: 119 to 120 °C | Absorbance @ 375 nm [3]: 0.03 | red region absorbance ([3]; in words, upper regions (above 350 nm) of the UV spectra): poor red region absorbance
SMILES: Oc1ccc(C(F)(F)F)cc1-n1nc2ccccc2n1 [EE, 2-(2-hydroxy-5-trifluoromethylphenyl)-2H-benzotriazole]

melting point: 166 °C
SMILES: CC(C)(C)c1cc(CCC(=O)O)cc(-n2nc3ccc(C(F)(F)F)cc3n2)c1O [Example 39, 3-(5-Trifluoromethyl-2H-benzotriazol-2-yl)-5-tert-butyl-4-hydroxyhydrocinnamic Acid]

% Loss [1]: 7.5% | Absorbance (max) Loss units [1]: 0.184 | Absorbance (max) 0 hrs [1]: 2.454 | Absorbance (max) 2000 hrs [1]: 2.270 | Units Absorbance Loss [5]: 0.4134
SMILES: CC(C)(C)CC(C)(C)c1ccc(O)c(-n2nc3ccccc3n2)c1 [J]

SMILES: CC(C)(C)CC(C)(C)c1cc(-n2nc3ccccc3n2)c(O)c(C(C)(C)c2ccccc2)c1 [Q, 2-(2-hydroxy-3-α-cumyl-5-tert-octylphenyl)-2H-benzotriazole]
ε @ λ max [2]: 16,500 | λ max nm [2]: 345 nm | Units Absorbance Loss [5]: 0.2492 | Units Absorbance Loss [6, 8]: 0.2351 | Units Absorbance Loss ([6]; after 1264 hours of exposure): 0.2293 | Units Absorbance Loss ([6]; after 1489 hours of exposure): 0.287 | Units Absorbance Loss ([6]; after 1518 hours of exposure): 0.2662 | Units Absorbance Loss ([6]; after 2521 hours of exposure): 0.4054 | Absorbance @ 375 nm [3]: 0.28 | Units of Absorbance Loss [7]: 0.28 | DE [4]: 0.07 | b [4]: −0.02

SMILES: CC(C)(C)CC(C)(C)c1cc(-n2nc3ccc(C(F)(F)F)cc3n2)c(O)c(C(C)(C)c2ccccc2)c1 [S, 5-trifluoromethyl-2-(2-hydroxy-3-α-cumyl-5-tert-octylphenyl)-2H-benzotriazole]
ε @ λ max [2]: 15,000 | λ max nm [2]: 348 nm | Units Absorbance Loss [6, 8]: 0.1271 | Units Absorbance Loss ([6]; after 1264 hours of exposure): 0.0921 | Units Absorbance Loss ([6]; after 1489 hours of exposure): 0.1547 | Units Absorbance Loss ([6]; after 1518 hours of exposure): 0.1116 | Units Absorbance Loss ([6]; after 2521 hours of exposure): 0.2192 | durability (low loss rate absorbance values after exposure) ([6]; in words, summary of the tables of Example 78): significantly more durable; also recorded: especially durable | Absorbance @ 375 nm [3]: 0.35 | DE [4]: 1.28 | b [4]: 1.05

SMILES: CCCCOc1ccc(-n2nc3ccccc3n2)c(O)c1 [Z, 2-(2-hydroxy-4-n-butoxyphenyl)-2H-benzotriazole]
Units of Absorbance Loss [7]: 1.58
